Read-outs that look alike come from different tables or passages of the source. Non-standard residues stand in square brackets, D forms with d. Residues, ends and D or L forms follow the SMILES beside them. Hyp = O=C(O)[C@@H]1C[C@@H](O)CN1
Assays:
[1] = Transfer of Pro-Hyp in blood after administration (LC-MS/MS); type: in vivo, C57 BL/6N mice; details: for Tmax: female, C57 BL/6N, mouse, blood, mice without wound, read-out: time at which blood concentration of Pro-Hyp reached a peak (converted)
Method: To C57 BL/6N mice (8 to 10 weeks of age, female) (N=4, per group) in which no wound site is formed, a physiological saline solution (500 nmol/200 μL) of the dipeptide consisting of the amino acid sequence of Pro-Hyp (which may be hereinafter referred to as simply “Pro-Hyp”) is administered intraperitoneally by injection (single administration) or a physiological saline solution (2500 nmol/200 μL) of Pro-Hyp was orally administered using a probe (single administration). After administration, blood was collected over time and Pro-Hyp occurred in blood was measured by LC-MS/MS method. The measurement conditions of LC-MS/MS method were as follows.
Collected blood was 2 times diluted in physiological saline and then centrifugation was performed under conditions at 20° C., 500×g, for 15 minutes. To the supernatant recovered after the centrifugation, 3 volumes of 100% ethanol were added. The supernatant to which 100% ethanol had been added was centrifuged at 20° C., 13000 rpm, for 15 minutes to perform deproteinization. Subsequently, the deproteinized sample was 10 times diluted in 50 mM ammonium bicarbonate and analyzed by LC-MS/MS. For the LC conditions, the analysis was conducted using CAPCELL PAK C1 UG120 10 mm×I.D. 2.0 mm (OSAKA SODA CO., LTD.) as a guard column and the column Hypersil Gold PFP 150 mm×I.D. 2.1 mm, 5 μm (manufactured by Thermo Fisher Scientific, Inc.). The analysis conditions were Mobile phase A MeOH, Mobile phase B a 2% formic acid aqueous solution containing 2 mM ammonium acetate, injection volume 5 μL, and gradient of Table 1 below.
The MS/MS was conducted using a tandem mass spectrometer (TSQ Vantage (manufactured by Thermo Fisher Scientific, Inc.)) under conditions of Method of ionization: Positive ESI, Spray voltage: 3000 V, Vaporizer: 300° C., Sheath gas: 30, Aux gas: 15, Capillary temperature: 250° C., MRM conditions: Parent Mass 229.1, Product Mass 70, Collision energy: 29 ev, S-Lens: 68.
Moreover, in the intraperitoneal administration, the Pro-Hyp concentration reached very high since it transferred in blood without gastrointestinal absorption. […] The C57 BL/6N mice in which no wound site was formed were used in this experiment, it is considered that a similar result is also obtained with Model-1 mice and Model-2 mice generated from the same line of mice.

[2] = tested on: granulation tissue in wound site of abdominal wall circular incision model (Model-2) mice; experiment: Formation of granulation tissue by administration of various polypeptides in Model-2 mice; type: in vivo, C57 BL/6N mice; details: Day 7; i.p. once a day for 7 days, doses of Table 7; control sparse; FIG. 9
Method: In this Example, aiming to examine granulation tissue formed in the peritoneum layer under tension, a novel model (Model-2) of granulation tissue formation that occurs between the peritoneum layers, which are under the minimal effect of the healing response from the skin layer and under direct influence of the tension of muscles, was generated in the following procedures. Female C57 BL/6N mice at 8 to 10 weeks of age were used. Anesthesia was introduced by administering 200 μL per animal (0.065 mg/g weight) of the anesthetic Somnopentyl (manufactured by Shering-Plough Corporation) to the peritoneal cavity. After the introduction of anesthesia, abdominal skin was cut open 1.5 cm along the midline using scissors for operations. […] Subsequently, the center part of the abdominal wall was picked up with round tip tweezers with an outside diameter of 3 mm, and the tissue in the central part of the abdominal wall was completely removed surgically in a circle with curved tip micro-operation scissors (Bottom panel in FIG. 1). After the incision, the positions 0.25 cm apart from the upper end and 0.25 cm apart from the bottom end of the incised skin (wound site) were sewed up to remove the tension of the skin. Subsequently, the skin was wrapped with Tegaderm and an underwear-shaped silicon protector was further put on to prevent the self-harm of the wound site. […]

[3] = oral, single administration 2500 nmol/200 μL

O=C(O)[C@@H]1C[C@@H](O)CN1C(=O)[C@@H]1CCCN1 [Pro-Hyp] (H-Pro-[Hyp]-OH; N-terminus and C-terminus assumed)
Tmax ([1]; ip, intraperitoneal, single administration 500 nmol/200 μL): 15 min
Tmax [1, 3]: 15 min
time at which blood concentration decreased to a baseline level ([1]; intraperitoneal, single administration 500 nmol/200 μL): 3 h
time at which blood concentration decreased to a baseline level [1, 3]: 3 h

Hyp-Gly
collagen fibers in granulation tissue, Masson trichrome stain [2]: the collagen fibers were dense and matured as the tissue

Source: patent publication US20210228675A1, “HYPERTROPHIC SCAR INHIBITING COMPOSITION” (FUKUOKA UNIVERSITY, priority 2018, published 2021)
